In paper PMC3448645, “Functional Studies of ssDNA Binding Ability of MarR Family Protein TcaR from Staphylococcus epidermidis” (PLoS ONE, 2012):

Tests used:
[1] = target: T1, TcaR (Staphylococcus epidermidis, UniProt Q5HLN6); assay: EMSA, inhibition of TcaR-GC33 ssDNA complex; assay type: binding; conditions: 1 uM GC33 ssDNA, 2 uM TcaR dimer, 2 or 20 uM antibiotic, pH 8.0, room temperature
T1 construct: homodimer

[2] = target: T1, TcaR; assay: EMSA, inhibition of TcaR-GC33 ssDNA complex; also SPR; assay type: binding; conditions: 1 uM GC33 ssDNA, 2 uM TcaR dimer, 2 or 20 uM antibiotic, pH 8.0, room temperature; SPR: 64 nM TcaR, 640 nM antibiotic, pH 7.5, 25 °C

SMILES | EMSA, inhibition of TcaR-GC33 ssDNA complex [1] | EMSA, inhibition of TcaR-GC33 ssDNA complex; also SPR [2]
O=C(N[C@H](CO)[C@H](O)c1ccc([N+](=O)[O-])cc1)C(Cl)Cl [chloramphenicol] | kanamycin, chloramphenicol and gentamycin interfered with the ssDNA (GC33) binding activity of TcaR | –
NC[C@H]1O[C@H](O[C@H]2[C@H](O)[C@@H](O[C@H]3O[C@H](CO)[C@@H](O)[C@H](N)[C@H]3O)[C@H](N)C[C@@H]2N)[C@H](O)[C@@H](O)[C@@H]1O [kanamycin] | – | kanamycin, chloramphenicol and gentamycin interfered with the ssDNA (GC33) binding activity of TcaR
